This is an account of results in patent publication US9770537B2, “Solvent methods for preparing crystalline macrolide particulates, compositions, and articles containing particulates” (SurModics, Inc., priority 2013, dated 2017).

Series [1] is described as follows: Solubility / saturation point of rapamycin in solvents. In kind it is physicochemical. To be noted: xylene at 20° C. Here is the method: Rapamycin has a molecular weight of 914.17 g/mol and molecular formula: C51H79NO13 (see also FIG. 1). It is insoluble in water, but soluble in ethanol (2 mM), methanol (25 mg/mL), DMSO (25 mg/mL), chloroform, (5 mg/mL), ether, acetone and N,N-dimethylformamide. As commercially supplied, rapamycin exists as one isomer (structurally homogeneous) in the solid form as indicated by X-rays whereas in solution there are two conformational isomers (approx. 4:1) which exist in equilibrium.
As a general matter, the macrolide therapeutic can be dissolved and/or dispersed in a desired amount in a solvent, or mixture of solvents, for forming the macrolide particulates. As a general matter, dependent on the solvent or solvent combination, as well as the macrolide being dissolved, it is understood in the composition that the macrolide can display a maximum solubility at a predetermined temperature, such as about 20° C. At the maximum solubility a solution can be referred to as “saturated.” The amount of macrolide dissolved can be described in conventional terms such as mg/mL, % (wt/vol), or molar. For example, the saturation point of rapamycin in many solvents is in the range of 15 mg/mL to 150 mg/mL. […]

For series [2] the following is noted: cited from earlier work.

Molecules are shown by their SMILES. Values after ≈ are worked out from the molar mass of the structure shown.

Consider `CO[C@H]1C[C@@H]2CC[C@@H](C)[C@@](O)(O2)C(=O)C(=O)N2CCCC[C@H]2C(=O)O[C@H]([C@H](C)C[C@@H]2CC[C@@H](O)[C@H](OC)C2)CC(=O)[C@H](C)/C=C(\C)[C@@H](O)[C@@H](OC)C(=O)[C@H](C)C[C@H](C)/C=C/C=C/C=C/1C` [Rapamycin, rapamycin], for which, in series [1], the “saturated solution concentration in xylene” value is listed as “about 75 mg/mL”. Besides, in series [2] (chloroform), the solubility in chloroform was 5000 µg/mL (≈ 5.47 mM). In series [2] (ethanol), the solubility in ethanol was 2000 µM (≈ 1830 µg/mL). Moreover, in series [2] (ether, acetone, N,N-dimethylformamide), the “solubility in ether, acetone and N,N-dimethylformamide” value is on record as “soluble”. The solubility in water result in series [2] (water) is “insoluble”.
